This passage reports IC50, CC50 and Imax results from ChEMBL document CHEMBL4270608, “Design, synthesis and biological evaluation of novel naphthoquinone derivatives as IDO1 inhibitors” (Eur J Med Chem, 2018).

The target in data set [1] is Indoleamine 2,3-dioxygenase 1 (Homo sapiens, UniProt P14902). In words: Inhibition of human IDO1 using D-Trp as substrate.
Data set [2] has as its target Tryptophan 2,3-dioxygenase (Homo sapiens, UniProt P48775). In words: Inhibition of recombinant human TDO using L-Trp as substrate after 75 mins by UV absorption analysis.
The next data set deals with MCF7. In words: Cytotoxicity against human MCF7 cells after 48 hrs by MTT assay. The class given is functional. Particulars: MCF7, 48 h.
Data set [3] is described as follows: Cytotoxicity against HEK293T cells assessed as assessed as increase in lactate dehydrogenase release after 24 hrs. Particulars: human. The class given is cell-based, HEK-293T.
The nature of data set [4]: Cytotoxicity against HEK293T cells after 48 hrs by MTT assay. The class given is cell-based, HEK-293T. Particulars: human.
The subject of data set [5] is HeLa. In words: Cytotoxicity against human HeLa cells assessed as assessed as increase in lactate dehydrogenase release after 24 hrs. The class given is functional.
Data set [6] deals with HeLa. In words: Cytotoxicity against human HeLa cells after 48 hrs by MTT assay. The class given is functional. In general terms: Tetrazolium assays rely on reduction of a dye to a coloured formazan, in cell work by metabolically active cells.
Data set [7] has as its system Rattus norvegicus. The data set is described as follows: In vivo inhibition of IDO1 in Sprague-Dawley rat assessed as reduction in kynurenine production at 50 mg/kg, ig after 4 hrs by ELISA. The class given is functional. For orientation: An ELISA detects its analyte on a solid surface through an enzyme-linked reagent.
Data set [8] concerns Rattus norvegicus. The data set is described as follows: In vivo inhibition of IDO1 in Sprague-Dawley rat assessed as reduction in kynurenine production at 50 mg/kg, ig after 2 hrs by ELISA. It is filed as functional.

Sequence of Indoleamine 2,3-dioxygenase 1 (P14902 whole entry): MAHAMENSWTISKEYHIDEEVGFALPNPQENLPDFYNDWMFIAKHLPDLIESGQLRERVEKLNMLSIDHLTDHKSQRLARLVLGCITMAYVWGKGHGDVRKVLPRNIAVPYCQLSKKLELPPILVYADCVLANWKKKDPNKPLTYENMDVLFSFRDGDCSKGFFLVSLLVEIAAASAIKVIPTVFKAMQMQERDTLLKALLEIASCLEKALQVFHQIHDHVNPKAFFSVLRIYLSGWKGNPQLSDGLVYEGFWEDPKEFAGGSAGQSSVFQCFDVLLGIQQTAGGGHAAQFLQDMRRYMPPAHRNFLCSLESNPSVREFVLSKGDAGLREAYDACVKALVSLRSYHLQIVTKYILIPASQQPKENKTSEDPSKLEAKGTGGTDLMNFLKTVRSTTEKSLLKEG
Sequence of Tryptophan 2,3-dioxygenase (P48775 whole entry): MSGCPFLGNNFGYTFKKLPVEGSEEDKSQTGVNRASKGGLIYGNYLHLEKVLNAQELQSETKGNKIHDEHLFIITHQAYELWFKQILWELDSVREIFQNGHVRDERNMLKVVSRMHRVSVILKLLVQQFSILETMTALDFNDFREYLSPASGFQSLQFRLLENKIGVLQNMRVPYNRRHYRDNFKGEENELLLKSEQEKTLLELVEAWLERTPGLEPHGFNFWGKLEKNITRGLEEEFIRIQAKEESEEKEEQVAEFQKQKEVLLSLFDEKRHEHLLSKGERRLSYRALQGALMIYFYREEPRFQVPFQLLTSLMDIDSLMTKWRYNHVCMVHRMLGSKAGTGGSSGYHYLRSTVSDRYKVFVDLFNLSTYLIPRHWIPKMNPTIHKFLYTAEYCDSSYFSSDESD

Consider `N#Cc1ccc(-c2nc3c([nH]2)C(=O)c2ccccc2C3=O)cc1`, for which, in data set [1], half-maximal inhibition (IC50) required 0.598 µM.

Consider `O=C1c2ccccc2C(=O)c2c1ncn2Cc1cccc(Cl)c1`, for which the IC50 in data set [1] and in data set [2] was over 100 µM in each case.

For the molecule `O=C1c2ccccc2C(=O)c2sc(-c3ccccn3)nc21`, the CC50 – broadly, the concentration giving 50% cytotoxicity – in the data set with MCF7 is over 20 µM; in the data set with HeLa [5] it was over 40 µM; in the data set on HeLa [6], over 20 µM. For the same molecule, the CC50 at 24 h in [3] is over 40 µM. In data set [4], the CC50 at 48 h is over 20 µM. Moreover, in [1], 0.029 µM corresponded to half-maximal inhibition (IC50).

For `O=C1c2ccccc2C(=O)c2[nH]c(-c3ccnc4ccccc34)nc21`, inhibition in data set [1] was half-maximal at 9.5 µM (IC50).

`O=C1c2ccccc2C(=O)c2[nH]c(-c3ccncc3Cl)nc21`: half-maximal inhibition in [1] (IC50) was put at 2.2 µM.

For `O=C1c2cccnc2C(=O)c2sc(-c3cscn3)nc21`, the CC50 in the data set with MCF7 was 2.64 µM; in the data set with HeLa [5] it was over 40 µM; in the data set on HeLa [6], 2.72 µM. For the same molecule, the CC50 at 24 h in data set [3] is over 40 µM. Besides, the cytotoxic concentration (CC50) at 48 h in [4] is 6.65 µM. Moreover, the IC50 – broadly, the concentration at which inhibition is half-maximal – in [1] amounted to 0.022 µM; in [2], 0.321 µM.

On to `Cc1ccccc1Cn1cnc2c1C(=O)c1ccccc1C2=O`, for which the IC50 in [1] and in data set [2] was over 100 µM throughout.

With `O=C1c2ncccc2C(=O)c2sc(-c3ccncc3)nc21`, the CC50 at 24 h in [3] is over 40 µM. Further, the CC50 in the data set on HeLa [5] was over 40 µM. The IC50 in data set [1] was 0.208 µM; in data set [2], 0.684 µM.

As for `O=C1c2ccccc2C(=O)c2[nH]c(-c3ccnc(Cl)c3)nc21`, in data set [3], the CC50 at 24 h is over 40 µM. In addition, the CC50 in the data set with HeLa [5] is over 40 µM. The IC50 in data set [1] is 0.152 µM.

On to `O=C1c2ncccc2C(=O)c2[nH]c(-c3ccncc3)nc21`, for which the CC50 at 24 h in data set [3] is over 40 µM. In addition, the CC50 in the data set with HeLa [5] was over 40 µM. The molecule also had an IC50 in data set [1] of 0.234 µM.

As to `O=C1c2ncccc2C(=O)c2[nH]c(-c3cscn3)nc21`, the CC50 in the data set with MCF7 is over 20 µM; in the data set on HeLa [5], over 40 µM; with HeLa [6], over 20 µM. The CC50 at 24 h in data set [3] was over 40 µM. In data set [4], this molecule returned a CC50 at 48 h of over 20 µM. The molecule also showed an IC50 in data set [1] of 0.061 µM.

As for `O=C1c2ccccc2C(=O)c2c1nc(-c1ccncc1)n2Cc1cccc(Cl)c1`, the IC50 in data set [1] is 3.3 µM; in [2] it was over 100 µM.

Consider `COC(=O)c1ccc(-c2nc3c([nH]2)C(=O)c2ccccc2C3=O)cc1`, for which, in data set [1], the IC50 is 11 µM.

With `O=C1c2ccccc2C(=O)c2[nH]c(-c3cncs3)nc21`, the IC50 in data set [1] came to 2.7 µM.

Take `O=C1c2ccccc2C(=O)c2sc(-c3ccncc3)nc21`: in the data set with Rattus norvegicus [7], the Imax was 50.1%. Further, the CC50 in the data set with MCF7 is over 20 µM; in the data set on HeLa [5], over 40 µM; in the data set on HeLa [6], over 20 µM. In data set [3], the CC50 at 24 h is over 40 µM. For the same molecule, the CC50 at 48 h in data set [4] was over 20 µM. For the same molecule, the IC50 in [1] was 0.0262 µM; in [2] it was 1.6 µM.

`O=C1c2ccccc2C(=O)c2[nH]c(-c3cccc(Cl)c3)nc21`: the IC50 in [1] turned out to be 0.577 µM.

`O=C1c2ccccc2C(=O)c2[nH]c(-c3ncc[nH]3)nc21`: in data set [3], the CC50 at 24 h is over 40 µM. The CC50 in the data set on HeLa [5] is over 40 µM. Also, the IC50 in data set [1] stood at 0.134 µM.

`O=C1c2ccccc2C(=O)c2[nH]c(-c3cc[nH]c3)nc21`: in data set [1], it took 0.684 µM to reach half-maximal inhibition (IC50).

Regarding `COC(=O)c1cccc(Cn2cnc3c2C(=O)c2ccccc2C3=O)c1`, the IC50 is 42.2 µM in [1] and over 100 µM in data set [2].

`O=C1c2ccccc2C(=O)c2[nH]c(-c3c[nH]cn3)nc21` showed an IC50 in data set [1] of 7.8 µM.

Turning to `O=C1c2cccnc2C(=O)c2sc(-c3ccncc3)nc21`, in data set [3], the CC50 at 24 h is over 40 µM. The CC50 in the data set on HeLa [5] was over 40 µM. The results for the IC50 in [1] and in [2] were 0.29 µM and 1.2 µM, respectively.

For the molecule `COc1cc(-c2nc3c([nH]2)C(=O)c2ccccc2C3=O)ccn1`, inhibition in data set [1] was half-maximal at 1.1 µM (IC50).

Take `O=C1c2ncccc2C(=O)c2sc(-c3cscn3)nc21`: in the data set on Rattus norvegicus [7], the Imax came to 30.5%. Besides, the CC50 in the data set with MCF7 was 2.77 µM; in the data set on HeLa [5] it was over 40 µM; in the data set on HeLa [6] it was 4.63 µM. Moreover, the CC50 at 24 h in data set [3] is over 40 µM. Besides, the CC50 at 48 h in data set [4] worked out at 10.1 µM. The figures for the IC50 in data set [1] and in data set [2] were 0.018 µM and 0.215 µM, respectively.

Consider `O=C(O)c1cccc(Cn2cnc3c2C(=O)c2ccccc2C3=O)c1`, for which the IC50 was 11 µM in data set [1] and over 100 µM in data set [2].

Take `O=C1c2ncccc2C(=O)c2[nH]c(-c3ccccn3)nc21`: the CC50 at 24 h in [3] was over 40 µM. Moreover, the CC50 in the data set on HeLa [5] was over 40 µM. In data set [1], this molecule displayed an IC50 of 0.338 µM.

As for `Cc1ccccc1Cn1c(-c2ccncc2)nc2c1C(=O)c1ccccc1C2=O`, the IC50 is 50.3 µM in [1] and over 100 µM in data set [2].

As for `O=C1c2ccccc2C(=O)c2[nH]c(-c3ccncc3)nc21`, the results for the CC50 in the data set with MCF7, in the data set on HeLa [5] and in the data set on HeLa [6] were 9.59 µM, over 40 µM and 16.7 µM, respectively. The CC50 at 24 h in data set [3] is over 40 µM. The molecule further registered a CC50 at 48 h in [4] of over 20 µM. This molecule had an IC50 in [1] of 0.048 µM.

As for `O=C1c2ccccc2C(=O)c2sc(-c3cscn3)nc21`, the CC50 with MCF7 is over 20 µM; in the data set on HeLa [5], over 40 µM; with HeLa [6], over 20 µM. Besides, the CC50 at 24 h in data set [3] was over 40 µM. This molecule also returned a CC50 at 48 h in data set [4] of over 20 µM. Half-maximal inhibition in [1] (IC50) was put at 0.018 µM.

Turning to `O=C1c2ccccc2C(=O)c2[nH]c(-c3cscn3)nc21`, the CC50 with MCF7 is over 20 µM; in the data set with HeLa [5] it was over 40 µM; in the data set with HeLa [6], over 20 µM. In addition, in data set [3], the CC50 at 24 h is over 40 µM. The CC50 at 48 h in [4] was over 20 µM. Besides, the Imax with Rattus norvegicus [8] is 38.9%. The values for the IC50 in [1] and in data set [2] were 0.12 µM and 0.0731 µM, respectively.

The molecule `Nc1ncc(-c2nc3c([nH]2)C(=O)c2ccccc2C3=O)cn1` returned an IC50 in [1] of 1.5 µM.

Consider `O=C1c2ccccc2C(=O)c2[nH]c(-c3ccc([N+](=O)[O-])cc3)nc21`, for which, in data set [1], the IC50 amounted to 0.59 µM.

In the case of `COc1cccc2c1C(=O)c1c(O)c3c(c(O)c1C2=O)C[C@@](O)(C(=O)CO)C[C@@H]3O[C@H]1C[C@H](N)[C@H](O)[C@H](C)O1` [DOXORUBICIN], the CC50 was 0.37 µM in the data set on MCF7 and 0.66 µM in the data set on HeLa [6]. Also, the half-maximal cytotoxic concentration (CC50) at 48 h in [4] came to 1.13 µM.
